Data published in patent US11896564B2, “Medical treatment for pathologic inflammation” (PHARMACYL AB, priority 2018, dated 2024).
Where a name gives a salt, the structure may show the parent alone.

Assays:
[1] = system: LPS-induced TNF-α production in RAW264.7 murine macrophage cells; assay: Suppression of LPS-induced TNF-α production in RAW264.7 macrophages (ELISA); format: cell-based; conditions: Mus musculus; 1 mM test substance; LPS 1 μg/ml; RAW264.7 cells
Excerpt: UC is an inflammatory disease characterized by the infiltration of inflammatory cells, such as macrophages, into the lesioned colon. Macrophages serve a critical role in the initiation and propagation of inflammatory responses by releasing proinflammatory mediators, such as TNF-α. Lipopolysaccharide (LPS) is a potent initiator of an inflammatory response. During LPS stimulation, NF-κB signaling is activated to regulate the transcription of numerous genes involved in immunity and inflammation to produce proinflammatory cytokines, such as TNF-α. Suppression of LPS-induced TNF-α production in RAW264.7 macrophages treated with AABZ was investigated by evaluation of the generation of TNF-α. The aim of this study was to evaluate the anti-inflammatory activity of AABZ.
The RAW264.7 macrophage line was maintained in DMEM supplemented with 5% FBS at 37° C. in a 5% […] air environment. The RAW264.7 cells were seeded in 96-well plates at a density of 1×10^5/ml and a volume of 200 μl/well. […] The supernatants were subsequently harvested at various time points and production of the proinflammatory cytokine TNF-α in the culture medium was determined using a commercially available enzyme-linked immunosorbent assay (ELISA) kit according to the manufacturer's protocol. […]

[2] = system: DSS-induced acute colitis in Balb/c mice; assay: Dextran sulfate sodium (DSS)-induced acute colitis, disease activity index; format: in vivo; conditions: day 5
Protocol: The experiment was performed using 6-8-week-old female Balb/c mice after a one-week acclimatization period. The mice weighed 18-25 g, were purchased from Taconic (Denmark) and were maintained in a temperature and light-controlled facility with free access to standard rodent chow and water. Mice were randomized to the respective groups five days before start of treatment and were kept 5 to 6 animals per cage. […] The DSS intake was assessed daily.
SASP (from Sigma-Aldrich, Sweden) was first dissolved in 0.2 M sodium hydroxide (NaOH) at a concentration higher than the required final concentration. Phosphate buffered saline (PBS) was added to the desired concentration and the pH was adjusted to 7.5-8.0 with NaOH or hydrochloric acid. SASP remained completely dissolved at this pH. Cpd A hydrochloride was dissolved in PBS to the desired concentration.
All animal groups had free access to 5% DSS water solution for the entire test period. Treatments were administered from day 0 to day 5, either orally by gavage (SASP) or intraperitoneally (Cpd A), and in an administration volume of 5 ml/kg, twice daily with approximately an 8-hour interval. The control group (DSS only) received water (0.2 ml) orally twice daily. The parameters recorded in the experiment were stool consistency (0, normal; 2, loose stools; 4, watery diarrhoea), occurrence of blood in the stool (0, normal; 2, Hemoccult+; 4, gross bleeding), and body weight loss (0, none; 1, 1-5%; 2, 5-10%; 3, 10-20%; 4, >20%). Disease activity index (DAI) was calculated by summarizing the scores of these three parameters. Also the colon length and the colonic content of myeloperoxidase (MPO) were recorded. Data was statistically evaluated with analysis of variance (ANOVA). Least-squares means (LS means), and standard error (SE) of LS means were calculated.

## CCN(CC)CCNC(=O)c1ccc(NC(C)=O)cc1 [4-Acetamido-N-[2-(diethylamino)ethyl]benzamide hydrochloride]
[1]
  inhibition at 1000 µM: 56%

## CCN(CC)CCNC(=O)c1ccc(NC(C)=O)c(Cl)c1 [Cpd A, 4-Acetamido-3-chloro-N-[2-(diethylamino)ethyl]benzamide hydrochloride]
[2]; Cpd A 50 mg/kg/day bid ip
  Percent Reduction of Score (Disease Activity Index) vs control: 7%

## O=C(O)c1cc(/N=N/c2ccc(S(=O)(=O)Nc3ccccn3)cc2)ccc1O [SASP, sulfasalazine]
[2]; SASP 20 mg/kg/day bid po
  Disease Activity Index LS means ± SE: 6.4 ± 0.5
  Percent Reduction of Score (Disease Activity Index) vs control: 8%
[2]; SASP 40 mg/kg/day bid po
  Percent Reduction of Score (Disease Activity Index) vs control: 36%
